Assay results from patent US12516010B2, “Crystal form of reduced coenzyme Q10 and preparation method therefor” ([…] BIOTECHNOLOGY (HAINAN) CO., LTD, priority 2023, dated 2026).

Tests used:
[1] = stability test: storage in a vacuum bag at 25° C. in the dark, HPLC analysis; assay type: physicochemical
Description: The crystal of reduced coenzyme Q10 obtained in Example 1 and the crystal obtained in Comparative Example 1 were each placed in a vacuum bag, and stored at 25° C. in the dark. The weight ratio of reduced coenzyme Q10 to oxidized coenzyme Q10 was calculated by the HPLC analysis, and the results are shown in Table 1.
Conditions for HPLC Analysis:
• Chromatographic column: (Agilent) ZORBAX Extend C18 4.6×150 mm, 5 um • Mobile phase: mobile phase A: acetonitrile, mobile phase B: isopropanol, mobile phase C: methanol • Detection wavelength: 290 nm • Flow rate: 1.5 mL/min • Column temperature: 35° C. • Injection concentration: 1 mg/mL • Injection volume: 20 μL

[2] = solubility in purified water; assay type: physicochemical; conditions: 25° C.

Structure (SMILES) | weight ratio of reduced coenzyme Q10 to oxidized coenzyme Q10: oxidized coenzyme Q10 part ([1]; day 0, vacuum bag) | weight ratio of reduced coenzyme Q10 to oxidized coenzyme Q10: reduced coenzyme Q10 part ([1]; day 0, vacuum bag) | weight ratio of reduced coenzyme Q10 to oxidized coenzyme Q10: oxidized coenzyme Q10 part ([1]; day 15, vacuum bag) | weight ratio of reduced coenzyme Q10 to oxidized coenzyme Q10: reduced coenzyme Q10 part ([1]; day 15, vacuum bag) | weight ratio of reduced coenzyme Q10 to oxidized coenzyme Q10: oxidized coenzyme Q10 part ([1]; day 30, vacuum bag) | weight ratio of reduced coenzyme Q10 to oxidized coenzyme Q10: reduced coenzyme Q10 part ([1]; day 30, vacuum bag) | weight ratio of reduced coenzyme Q10 to oxidized coenzyme Q10: oxidized coenzyme Q10 part ([1]; day 180, vacuum bag) | weight ratio of reduced coenzyme Q10 to oxidized coenzyme Q10: reduced coenzyme Q10 part ([1]; day 180, vacuum bag) | weight ratio of reduced coenzyme Q10 to oxidized coenzyme Q10: oxidized coenzyme Q10 part ([1]; day 360, vacuum bag) | weight ratio of reduced coenzyme Q10 to oxidized coenzyme Q10: reduced coenzyme Q10 part ([1]; day 360, vacuum bag) | solubility in purified water [2]
COc1c(O)c(C)c(C/C=C(\C)CC/C=C(\C)CC/C=C(\C)CC/C=C(\C)CC/C=C(\C)CC/C=C(\C)CC/C=C(\C)CC/C=C(\C)CC/C=C(\C)CCC=C(C)C)c(O)c1OC [Comparative Example 1, reduced coenzyme Q10] | 0.65 | 98.20 | 1.63 | 97.10 | 5.47 | 93.40 | 8.8 | 89.60 | 17.0 | 82.0 | 
COc1c(O)c(C)c(C/C=C(\C)CC/C=C(\C)CC/C=C(\C)CC/C=C(\C)CC/C=C(\C)CC/C=C(\C)CC/C=C(\C)CC/C=C(\C)CC/C=C(\C)CCC=C(C)C)c(O)c1OC [Example 1, reduced coenzyme Q10] | 0.40 | 99.18 | 0.50 | 99.00 | 0.80 | 98.01 | 1.10 | 97.90 | 1.94 | 97.33 | 0.5 % by weight
COc1c(O)c(C)c(C/C=C(\C)CC/C=C(\C)CC/C=C(\C)CC/C=C(\C)CC/C=C(\C)CC/C=C(\C)CC/C=C(\C)CC/C=C(\C)CC/C=C(\C)CCC=C(C)C)c(O)c1OC [Example 2, reduced coenzyme Q10] |  |  |  |  |  |  |  |  |  |  | 0.5 % by weight
